This note sets out measurements from US20080139558A1, “QUINOLONES USEFUL AS INDUCIBLE NITRIC OXIDE SYNTHASE INHIBITORS” (KALYPSYS, INC., priority 2006, published 2008).

A value given as a limit tells only on which side of the number the result lay.

The target of this experiment is T1, human iNOS (Homo sapiens, UniProt P35228).
T1 construct: expressed in transfected cells; host or cells: HEK293
The experiment in a line: DAN assay of nitric oxide production (hiNOS). The settings on record: enzyme expressed in HEK293 cells transiently transfected with human iNOS. The experiment is classed as cell-based. In short, it runs like this:
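Human iNOS transiently expressed in HEK293 cells; NO production quantified as nitrite via 2,3-diaminonaphthalene reaction forming fluorescent naphthotriazole.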

T1 sequence (P35228 whole entry): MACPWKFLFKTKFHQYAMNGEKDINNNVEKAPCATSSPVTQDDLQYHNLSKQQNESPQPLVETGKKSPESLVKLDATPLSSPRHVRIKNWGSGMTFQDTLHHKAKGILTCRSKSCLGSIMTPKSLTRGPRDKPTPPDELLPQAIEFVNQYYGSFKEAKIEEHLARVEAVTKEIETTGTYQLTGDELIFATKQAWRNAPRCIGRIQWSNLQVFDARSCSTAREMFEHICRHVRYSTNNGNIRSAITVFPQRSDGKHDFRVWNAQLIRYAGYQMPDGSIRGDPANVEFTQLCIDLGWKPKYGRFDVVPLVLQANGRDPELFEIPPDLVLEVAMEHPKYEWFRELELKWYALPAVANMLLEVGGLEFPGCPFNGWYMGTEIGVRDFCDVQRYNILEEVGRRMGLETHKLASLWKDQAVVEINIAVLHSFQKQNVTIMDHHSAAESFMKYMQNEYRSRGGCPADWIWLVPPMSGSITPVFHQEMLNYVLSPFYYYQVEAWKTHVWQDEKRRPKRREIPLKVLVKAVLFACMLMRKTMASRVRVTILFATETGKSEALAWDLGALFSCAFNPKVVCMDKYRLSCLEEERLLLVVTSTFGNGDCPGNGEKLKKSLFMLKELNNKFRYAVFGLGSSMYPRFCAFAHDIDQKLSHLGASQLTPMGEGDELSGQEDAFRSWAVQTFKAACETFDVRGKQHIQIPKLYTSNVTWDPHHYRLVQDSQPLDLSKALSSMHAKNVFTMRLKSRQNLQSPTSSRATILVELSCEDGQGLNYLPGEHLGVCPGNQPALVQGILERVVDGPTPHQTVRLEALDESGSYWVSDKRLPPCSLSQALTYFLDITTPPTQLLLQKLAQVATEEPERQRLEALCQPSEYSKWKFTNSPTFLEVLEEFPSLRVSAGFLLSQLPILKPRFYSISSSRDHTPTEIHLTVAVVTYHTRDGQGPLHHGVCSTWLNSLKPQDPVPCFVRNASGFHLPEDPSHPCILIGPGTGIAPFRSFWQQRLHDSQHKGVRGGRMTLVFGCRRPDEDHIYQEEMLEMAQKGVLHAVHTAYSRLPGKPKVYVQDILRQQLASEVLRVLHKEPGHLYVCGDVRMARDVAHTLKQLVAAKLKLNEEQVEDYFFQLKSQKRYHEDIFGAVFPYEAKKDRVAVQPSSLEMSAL

With `CC1CC1c1nc2ccccc2n1Cc1cc(=O)[nH]c2c(F)c(F)ccc12` (racemic) [Example 238, 7,8-Difluoro-4-((2-(2-methylcyclopropyl)-1H-benzo[d]imidazol-1-yl)methyl)quinolin-2(1H)-one], the concentration giving a half-maximal response (EC50) is over 5 µM. The molecule `O=C(c1ccncc1)N(Cc1cc(=O)[nH]c2c(F)cccc12)c1cccc(Cl)c1` [Example 69, N-(3-Chlorophenyl)-N-((8-fluoro-2-oxo-1,2-dihydroquinolin-4-yl)methyl)isonicotinamide] came in with an EC50 of over 5 µM. To `Cc1noc(C)c1-c1nc2ccccc2n1Cc1cc(=O)[nH]c2c(F)c(F)ccc12` [Example 232, 4-((2-(3,5-Dimethylisoxazol-4-yl)-1H-benzo[d]imidazol-1-yl)methyl)-7,8-difluoroquinolin-2(1H)-one] belongs at most 5 µM; to `COc1ccc(N(Cc2cc(=O)[nH]c3ccccc23)C(=O)c2ccco2)cc1` [Example 10, N-(4-Methoxyphenyl)-N-[(2-oxo-1,2-dihydroquinolin-4-yl)methyl]-2-furamide], at most 5 µM.

As a reminder, the EC50 is the concentration needed to bring the measured effect to its halfway point.
